Legend:
[1] = tested on: insect; assay: Insect control assays; conditions: in vivo
[2] = tested on: tobacco budworm (Heliothis virescens) larvae; assay: Topical assay on tobacco budworm larvae; assay type: in vivo; conditions: acetone solution, 1 microg/larva, six larvae, mortality at end of two-day period, 21° C., 60% RH
Method: (§1) Biological activity of the compounds of the invention was shown by a topical assay in which the compound was applied to laboratory-reared larvae (mean weight 22 mg) at the rate of 1 microg/larva. Each compound was applied, in an acetone solution (1 mg/mL), along the dorsum of six tobacco budworm (Heliothis virescens) larvae and six beet armyworm (Spodoptera exigua) larvae. Treated larvae were then held for two days at 21° C., 60% RH in six-well plastic culture plates. Larvae were each supplied with a 1 cm^3 of agar-based Lepidoptera diet for sustenance during the two-day post-exposure interval. Percent mortality was determined at the end of a two-day period (Table 18).

[3] = tested on: beet armyworm (Spodoptera exigua) larvae; assay: Topical assay on beet armyworm larvae; assay type: in vivo; conditions: acetone solution, 1 microg/larva, six larvae, mortality at end of two-day period, 21° C., 60% RH
Method: as §1

| SMILES | activity in insect control assays [1] | Tobacco Budworm Mortality (%) [2] | Beet Armyworm Mortality (%) [3] |
| --- | --- | --- | --- |
| CCC[C@H]1CCC[C@H](O[C@H]2CC[C@H](N(C)C)[C@@H](C)O2)[C@@H](C)C(=O)C2=C[C@@H]3[C@@H](C=C[C@@H]4C[C@@H](O[C@@H]5O[C@@H](C)[C@H](OC)[C@@H](OC)[C@H]5OC)C[C@@H]34)[C@@H]2CC(=O)O1 [21-desethyl-21-n-propyl spinosyn A] | active | – | – |
| CO[C@@H]1[C@@H](OC)[C@H](C)O[C@@H](O[C@H]2C[C@H]3[C@@H]4C=C5C(=O)[C@H](C)[C@@H](O[C@H]6CC[C@H](N(C)C)[C@@H](C)O6)CCC[C@@H](C6CC6)OC(=O)C[C@H]5[C@@H]4C=C[C@@H]3C2)[C@@H]1OC [Compound 1, 21-desethyl-21-cyclopropyl spinosyn A] | – | 100% | 33% |
| CO[C@@H]1[C@@H](OC)[C@H](C)O[C@@H](O[C@H]2C[C@H]3[C@@H]4C=C5C(=O)[C@H](C)[C@@H](O[C@H]6CC[C@H](N(C)C)[C@@H](C)O6)CCC[C@@H](C6CCC6)OC(=O)C[C@H]5[C@@H]4C=C[C@@H]3C2)[C@@H]1OC [Compound 3, 21-desethyl-21-cyclobutyl spinosyn A] | – | 83% | 83% |
| CO[C@@H]1[C@@H](OC)[C@H](C)O[C@@H](O[C@H]2C[C@H]3[C@@H]4C=C5C(=O)[C@H](C)[C@@H](O[C@H]6CC[C@H](N(C)C)[C@@H](C)O6)CCC[C@H](C6CCC6)OC(=O)C[C@H]5[C@@H]4C=C(C)[C@@H]3C2)[C@@H]1OC [Compound 4, 21-desethyl-21-cyclobutyl spinosyn D] | – | 100% | 83% |
| CO[C@@H]1[C@@H](OC)[C@H](C)O[C@@H](O[C@@H]2C[C@H]3CC[C@@H]4[C@@H](C=C5C(=O)[C@H](C)[C@@H](O[C@H]6CC[C@H](N(C)C)[C@@H](C)O6)CCC[C@H](C6CCC6)OC(=O)C[C@H]54)[C@@H]3C2)[C@@H]1OC [Compound 8, 5,6-dihydro-21-desethyl-21-cyclobutyl spinosyn A] | – | 100% | 83% |
| CO[C@@H]1[C@@H](OC)[C@H](C)O[C@@H](O[C@H]2C[C@H]3[C@@H]4C=C5C(=O)[C@H](C)[C@@H](O[C@H]6CC[C@H](N(C)C)[C@@H](C)O6)CCC[C@H](C(C)C)OC(=O)C[C@H]5[C@@H]4C=C[C@@H]3C2)[C@@H]1OC [Compound 9, 21-desethyl-21-isopropyl spinosyn A] | active | 100% | 100% |
| CCC[C@H]1CCC[C@H](O[C@H]2CC[C@H](N(C)C)[C@@H](C)O2)[C@@H](C)C(=O)C2=C[C@@H]3[C@@H](C=C[C@@H]4C[C@@H](O[C@@H]5O[C@@H](C)[C@H](OC)[C@@H](OC)[C@H]5OC)C[C@@H]34)[C@@H]2CC(=O)O1 [Compound 23, 21-desethyl-21-n-propyl spinosyn A] | – | 100% | 100% |

Source: patent US9137992B2, “Spinosyn-producing polyketide synthases” (DOW AGROSCIENCES LLC, priority 2002, dated 2015)
